We go through 23 molecules from US10196357B2, “Biaryl compositions and methods for modulating a kinase cascade” (Athenex, Inc., priority 2007, dated 2019).

The term GI50 denotes the concentration at which growth is held to half of that of the control.

For one test, the system named is HT29 cell line. As to the kind of experiment: BrdU cell growth inhibition, HT29. Type of test: cell-based, human. The following applies: for activity at 0.05 µM / activity at 0.5 µM / activity at 5 µM: HT-29, read-out: HT-29 Growth, % of Control Mean, n = 3; for activity at 0.05 µM: 50 nM; for activity at 0.5 µM: 500 nM. As for the experimental part: (§1) The GI50s for several of the compounds of the invention were assayed as described herein.
The HT29 cell line is a NCI standard human colon carcinoma cell line.
(§2) In the BrdU Assay for cell growth inhibition, quantitation of cell proliferation was based on the measurement of BrdU incorporation during DNA synthesis. The Cell Proliferation ELISA BrdU assay kit (colorimetric) was obtained from Roche Applied Science and performed as per vendor instructions.
(§3) The growth inhibition (GI) is determined from the formula GI=(T0−Tn×100/T0−CONn) where T0 is the BrdU growth of untreated cells at time “0”, Tn is the BrdU growth of treated cells at day “n” and CONn is the control BrdU growth of control cells at day “n”. The GI50 was extrapolated and the data plotted using XL-Fit 4.0 software.
(§4) For 96 well culture plate experiments, c-Src 3T3 medium was supplemented with 10 mM HEPES buffer. HT-29 cells were seeded in standard tissue culture 96-well plates and c-Src 3T3 cells were seeded in 96-well plates coated with Poly-D-lysine (BIOCOAT™). To increase CO2 diffusion, c-Src 3T3 96-well plates were incubated with their lids raised by ˜2 mm using sterile rubber caps.
(§5) Samples were reconstituted in DMSO at 20 mM and intermediate dilutions made using DMEM containing 10% FBS. […] Plates were assayed for BrdU and the data analyzed as above for GI50.
(§6) All compounds were initially prepared as 20 mM DMSO stock solutions and then diluted into buffer for the in vitro tumor growth assays. NG means no cell growth beyond the control and T means the number of cells in the drug treated wells was less than in the control (i.e. net cell loss).
Growth Inhibition. […] T1 values≤T0 values were designated as T, cytotoxicity.

The subject of a further test is c-Src 3T3 cells. As to the kind of experiment: BrdU cell growth inhibition, c-Src 3T3. Type of test: cell-based, mouse. The following applies: Mus musculus; for activity at 0.1 µM / activity at 1 µM / activity at 10 µM: NIH3T3, read-out: c-Src 3T3 Growth, % of Control Mean, n = 3; for activity at 0.1 µM: 100 nM; for GI50: c-Src 3T3 (c-Src527F/NIH3T3) cells, read-out: GI50. As for the experimental part:
as §1
The cells were routinely cultured in DMEM supplemented with Fetal Bovine Serum (2.0% v/V), L-glutamine (2 mM) and Sodium Pyruvate (1 mM).
as §2, §3, §4, §5, §6

The mark [1] stands for this setting: Homo sapiens, HT-29, HT29 (Colon) cells, read-out: GI50.

Read-outs that look alike come from different tables or passages of the source.

Turning to `O=C(Cc1ccc(-c2ccncc2)cc1)NCc1cccc(F)c1` [KX1-327], the GI50 in the test on HT29 cell line (setting [1]) amounted to 680 nM. Also, in the test on HT29 cell line (Homo sapiens), the activity at 0.05 µM was found to be 31.6%, the activity at 0.5 µM was less than 0% and the activity at 5 µM is less than 0%. In addition, in the test on c-Src 3T3 cells, the activity at 0.1 µM is 81.3%, the activity at 1 µM is less than 0%, the activity at 10 µM was less than 0% and the GI50 was greater than 200 nM.

As to `O=C(Cc1ccc(-c2ccc(F)cc2)cc1)NCc1cccc(F)c1` [KX1-311, N-(3-fluorobenzyl)-4-(4-fluorophenyl)phenylacetamide], in the test with HT29 cell line (Homo sapiens), the activity at 0.05 µM is 60.4%, the activity at 0.5 µM was less than 0% and the activity at 5 µM was less than 0%. Moreover, in the test with c-Src 3T3 cells, the activity at 0.1 µM was 81.3%, the activity at 1 µM was less than 0% and the activity at 10 µM is less than 0%.

For `O=C(Cc1ccc(-c2ccccc2)cc1)Nc1cccc(F)c1` [KX1-308, N-(3-fluorophenyl)-4-biphenylacetamide], in the test with HT29 cell line (Homo sapiens), the activity at 0.05 µM stood at 87.9%, the activity at 0.5 µM is 76.1% and the activity at 5 µM was determined as 32.3%. Also, in the test with c-Src 3T3 cells, the activity at 0.1 µM stood at 94.5%, the activity at 1 µM is 77.7% and the activity at 10 µM is 67.1%.

As to `O=C(Cc1ccc(-c2cccc(F)c2)nc1)NCc1cccc(F)c1` [KX1-321, N-(3-Fluoro-benzyl)-2-[6-(3-fluoro-phenyl)-pyridin-3-yl]-acetamide], in the test on HT29 cell line (Homo sapiens), the activity at 0.05 µM was determined as 127%, the activity at 0.5 µM is 118% and the activity at 5 µM worked out at 23.7%. In the test with c-Src 3T3 cells, the activity at 0.1 µM worked out at 95.5%, the activity at 1 µM is 96.2% and the activity at 10 µM was 55.8%.

Consider `O=C(Cc1ccc(-c2ccc(OCCCN3CCOCC3)cc2)cn1)NCc1cccc(F)c1` [KX2-383], for which the GI50 in the test with HT29 cell line (setting [1]) was determined as 248 nM; in the test on c-Src 3T3 cells, 327 nM.

On to `CS(=O)(=O)c1ccc(-c2ccc(CC(=O)NCc3cccc(F)c3)cn2)cc1` [KX1-326, N-(3-Fluoro-benzyl)-2-[6-(4-methanesulfonyl-phenyl)-pyridin-3-yl]-acetamide], for which, in the test with HT29 cell line (Homo sapiens), the activity at 0.05 µM was 65.4%, the activity at 0.5 µM amounted to 73.2% and the activity at 5 µM is 43.7%. Further, in the test on c-Src 3T3 cells, the activity at 0.1 µM came out at 92.2%, the activity at 1 µM amounted to 87.3% and the activity at 10 µM came to 55.7%.

On to `O=C(Cc1ccc(-c2ccc(N3CCCCC3)cc2)cn1)NCc1cccc(F)c1` [KX2-372], for which the GI50 with HT29 cell line (setting [1]) stood at 67 nM. Moreover, in the test on HT29 cell line (Homo sapiens), the activity at 0.05 µM is less than 0%, the activity at 0.5 µM is less than 0% and the activity at 5 µM is less than 0%. For the same molecule, in the test with c-Src 3T3 cells, the activity at 0.1 µM is less than 0%, the activity at 1 µM is less than 0%, the activity at 10 µM was less than 0% and the 50% growth inhibitory concentration (GI50) is 58 nM.

Turning to `CCOc1ccc(-c2ccc(CC(=O)NCc3cc(F)cc(OCC(C)C)c3)nc2)cc1` [KX2-368], in the test on HT29 cell line (Homo sapiens), the activity at 0.05 µM came to 107%, the activity at 0.5 µM worked out at 70% and the activity at 5 µM is less than 0%. In addition, in the test with c-Src 3T3 cells, the activity at 0.1 µM came out at 99%, the activity at 1 µM stood at 101% and the activity at 10 µM worked out at 27%.

Regarding `CCOc1ccccc1-c1ccc(CC(=O)NCc2cccc(F)c2)cn1` [KX1-324, 2-[6-(2-Ethoxy-phenyl)-pyridin-3-yl]-N-(3-fluoro-benzyl)-acetamide], in the test with HT29 cell line (Homo sapiens), the activity at 0.05 µM turned out to be 91%, the activity at 0.5 µM worked out at 95.7% and the activity at 5 µM amounted to 0%. For the same molecule, in the test with c-Src 3T3 cells, the activity at 0.1 µM was determined as 96%, the activity at 1 µM amounted to 90% and the activity at 10 µM is less than 0%.

In the case of `CCOc1ccc(-c2ccc(CC(=O)NCc3cccc(F)c3)nc2)c(OCCN2CCN(C)CC2)c1` [KX2-384], the GI50 result with HT29 cell line (HT29 (Colon) cells) was “inactive”; with c-Src 3T3 cells it was 1430 nM.

Consider `CC(C)COc1cc(F)cc(CNC(=O)Cc2ccc(-c3ccc(N4CCCCC4)cc3)cn2)c1` [KX2-371], for which, in the test with HT29 cell line (Homo sapiens), the activity at 0.05 µM worked out at 98%, the activity at 0.5 µM is 33% and the activity at 5 µM stood at 16%. Besides, in the test with c-Src 3T3 cells, the activity at 0.1 µM came out at 75%, the activity at 1 µM came to 72% and the activity at 10 µM amounted to 16%.

`O=C(Cc1ccc(-c2ccc(OCCCN3CCCCC3)cc2)cn1)NCc1cccc(F)c1` [KX2-374]: in the test with HT29 cell line (Homo sapiens), the activity at 0.05 µM was determined as 74%, the activity at 0.5 µM is 57% and the activity at 5 µM is less than 0%. In the test with c-Src 3T3 cells, the activity at 0.1 µM is 110%, the activity at 1 µM turned out to be 84% and the activity at 10 µM is less than 0%.

As to `CC(C)COc1cc(F)cc(CNC(=O)Cc2ccc(-c3ccc(CN4CCCCC4)cc3)cn2)c1` [KX2-366], in the test with HT29 cell line (Homo sapiens), the activity at 0.05 µM stood at 89%, the activity at 0.5 µM is 54% and the activity at 5 µM was less than 0%. Also, in the test on c-Src 3T3 cells, the activity at 0.1 µM worked out at 103%, the activity at 1 µM amounted to 83% and the activity at 10 µM was less than 0%.

In the case of `O=C(Cc1ccc(-c2ccccn2)cc1)NCc1cccc(F)c1` [KX1-315, N-(3-Fluoro-benzyl)-2-(4-pyridin-2-yl-phenyl)-acetamide], in the test on HT29 cell line (Homo sapiens), the activity at 0.05 µM amounted to 66%, the activity at 0.5 µM was 50.3% and the activity at 5 µM is less than 0%. In the test with c-Src 3T3 cells, the activity at 0.1 µM came to 89.3%, the activity at 1 µM came out at 88.1% and the activity at 10 µM was less than 0%.

As to `O=C(Cc1ccc(-c2ccc(CN3CCCCC3)cc2)cn1)NCc1cccc(F)c1` [KX2-364], in the test on HT29 cell line (Homo sapiens), the activity at 0.05 µM is 105%, the activity at 0.5 µM came out at 80% and the activity at 5 µM was less than 0%. In the test on c-Src 3T3 cells, the activity at 0.1 µM was determined as 92%, the activity at 1 µM was 81% and the activity at 10 µM was less than 0%.

On to `CCOc1ccc(-c2ccc(CC(=O)NCc3cc(F)cc(OCC4CCN(C)CC4)c3)nc2)cc1` [KX2-381], for which the 50% growth inhibitory concentration (GI50) in the test on HT29 cell line (setting [1]) is 375 nM. In the test on HT29 cell line (Homo sapiens), the activity at 0.05 µM is 58%, the activity at 0.5 µM was less than 0% and the activity at 5 µM was less than 0%. Besides, in the test on c-Src 3T3 cells, the activity at 0.1 µM worked out at 116%, the activity at 1 µM is less than 0%, the activity at 10 µM is less than 0% and the GI50 was 914 nM.

Regarding `CCOc1ccccc1-c1ccc(CC(=O)NCc2cccc(F)c2)nc1` [KX2-360], in the test on HT29 cell line (Homo sapiens), the activity at 0.05 µM worked out at 91%, the activity at 0.5 µM is less than 0% and the activity at 5 µM was less than 0%. Moreover, in the test on c-Src 3T3 cells, the activity at 0.1 µM was determined as 106%, the activity at 1 µM is less than 0% and the activity at 10 µM is less than 0%.

On to `CN1CCN(c2ccc(-c3ccc(CC(=O)NCc4cccc(F)c4)nc3)cc2)CC1` [KX2-373], for which the GI50 in the test with HT29 cell line (setting [1]) came out at 639 nM. Moreover, in the test on HT29 cell line (Homo sapiens), the activity at 0.05 µM was 64%, the activity at 0.5 µM was less than 0% and the activity at 5 µM is less than 0%. Further, in the test on c-Src 3T3 cells, the activity at 0.1 µM came out at 97%, the activity at 1 µM was less than 0%, the activity at 10 µM is less than 0% and the GI50 came to 96 nM.

On to `COc1cc(Nc2c(C#N)cnc3cc(OCCCN4CCN(C)CC4)c(OC)cc23)c(Cl)cc1Cl` [SKI-606], for which the values for the concentration for 50% growth inhibition (GI50) in the test with HT29 cell line (setting [1]) and in the test with c-Src 3T3 cells were 173 nM and 208 nM, respectively.

Turning to `O=C(Cc1ccc(-c2ccc(F)cc2)nc1)NCc1cccc(F)c1` [KX1-320, N-(3-Fluoro-benzyl)-2-[6-(4-fluoro-phenyl)-pyridin-3-yl]-acetamide], in the test on HT29 cell line (Homo sapiens), the activity at 0.05 µM is 111%, the activity at 0.5 µM amounted to 132% and the activity at 5 µM worked out at 86.2%. For the same molecule, in the test on c-Src 3T3 cells, the activity at 0.1 µM amounted to 90.4%, the activity at 1 µM amounted to 86.5% and the activity at 10 µM worked out at 73.1%.

For `CN1CCN(CCOc2cc(OC3CCOCC3)c3c(Nc4c(Cl)ccc5c4OCO5)ncnc3c2)CC1` [AZD0530, reference compound], the GI50 came to 330 nM in the test on HT29 cell line (setting [1]) and 203 nM in the test with c-Src 3T3 cells.

As for `CCOc1ccccc1-c1ccc(CC(=O)NCc2cc(F)cc(OCC(C)C)c2)nc1` [KX2-369], in the test with HT29 cell line (Homo sapiens), the activity at 0.05 µM was 87%, the activity at 0.5 µM was found to be 72% and the activity at 5 µM is less than 0%. Besides, in the test with c-Src 3T3 cells, the activity at 0.1 µM stood at 100%, the activity at 1 µM is 101% and the activity at 10 µM was less than 0%.

Regarding `O=C(Cc1ccc(-c2ccc(OCCN3CCOCC3)cc2)cn1)NCc1cccc(F)c1` [KX2-377], the 50% growth inhibitory concentration (GI50) in the test on HT29 cell line (setting [1]) was determined as 111 nM. Moreover, in the test on HT29 cell line (Homo sapiens), the activity at 0.05 µM is less than 0%, the activity at 0.5 µM is less than 0% and the activity at 5 µM is less than 0%. In the test with c-Src 3T3 cells, the activity at 0.1 µM is less than 0%, the activity at 1 µM was less than 0%, the activity at 10 µM is less than 0% and the GI50 amounted to 118 nM.
